Data: US11839613B2, “Pyrimidine derivatives as PGE2 receptor modulators” (IDORSIA PHARMACEUTICALS LTD, priority 2017, dated 2023)

Columns and labels:
[1] = target: EP4 (Homo sapiens (Human), UniProt P35408); assay: hEP4 cAMP assay (BT549 breast cancer cells, HTRF cAMP); assay type: cell-based; conditions: antagonistic activity, PGE2 6 nM
Method in brief: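 cAMP accumulation quantified by HTRF competition between cellular cAMP and d2-labeled cAMP for cryptate anti-cAMP antibody. Cells: endogenously EP4-expressing BT549, buffer with 2 mM IBMX; 45 min RT compound preincubation preceded 30 min RT challenge with PGE2 at 6 nM final.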

[2] = target: PTGER2 (EP2) (Homo sapiens (Human), UniProt P43116); assay: hEP2 b-arrestin assay (PathHunter HEK 293 PTGER2 b-arrestin cells); assay type: cell-based; conditions: antagonistic activity, beta-arrestin assay; read-out: hEP2 b-arr IC50
Sequence of PTGER2 (EP2) (P43116 whole entry): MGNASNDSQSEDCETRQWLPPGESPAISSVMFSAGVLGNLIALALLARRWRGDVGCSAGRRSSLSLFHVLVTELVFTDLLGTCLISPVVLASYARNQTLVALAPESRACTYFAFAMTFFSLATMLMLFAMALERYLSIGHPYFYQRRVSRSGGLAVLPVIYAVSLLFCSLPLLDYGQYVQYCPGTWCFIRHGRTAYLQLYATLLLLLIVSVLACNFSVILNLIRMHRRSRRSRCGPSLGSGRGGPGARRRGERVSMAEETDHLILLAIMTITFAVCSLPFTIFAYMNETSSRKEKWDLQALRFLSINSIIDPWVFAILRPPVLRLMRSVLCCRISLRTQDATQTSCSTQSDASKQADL
Procedure: Plate is pre-incubated 15 minutes at 37° C. Then five microliters of PGE2 (final conc. 5 μM) are transferred into the assay plate. Plate is incubated 120 minutes at 37° C.
(each concentration is measured in duplicate)

[3] = target: EP2 (Homo sapiens (Human), UniProt P43116); assay: hEP2 cAMP assay (SF295 glioblastoma cells, HTRF cAMP); assay type: cell-based; conditions: antagonistic activity
Sequence of EP2 (P43116 whole entry): as above
Method in brief: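 PGE2-driven cAMP accumulation was measured by HTRF in SF295 cells, which express endogenous EP2 only. Cells in assay buffer with 2 mM IBMX were pre-incubated 45 min at RT, then incubated 30 min at RT. Detection used competition between cellular cAMP and d2-cAMP for a cryptate anti-cAMP antibody.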

[4] = target: PTGER4 (EP4) (Homo sapiens (Human), UniProt P35408); assay: cell-based
Sequence of PTGER4 (EP4) (P35408 whole entry): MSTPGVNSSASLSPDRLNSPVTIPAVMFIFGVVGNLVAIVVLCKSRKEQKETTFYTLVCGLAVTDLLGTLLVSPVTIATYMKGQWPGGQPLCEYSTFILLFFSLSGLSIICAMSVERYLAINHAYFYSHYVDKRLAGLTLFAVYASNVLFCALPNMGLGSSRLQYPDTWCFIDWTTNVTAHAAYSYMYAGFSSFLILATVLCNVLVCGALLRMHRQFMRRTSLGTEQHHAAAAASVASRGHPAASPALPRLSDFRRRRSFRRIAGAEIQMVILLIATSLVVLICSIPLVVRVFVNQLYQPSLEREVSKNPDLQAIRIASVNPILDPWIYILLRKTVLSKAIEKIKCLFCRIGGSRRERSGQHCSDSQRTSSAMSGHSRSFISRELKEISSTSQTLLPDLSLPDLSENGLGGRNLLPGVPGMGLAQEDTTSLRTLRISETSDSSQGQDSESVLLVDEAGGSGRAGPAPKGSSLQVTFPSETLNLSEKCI

Sequence of EP4 (P35408 whole entry): as above

Compound | IC50 [1] [nM] | IC50 [2] [nM] | IC50 [3] [nM] | IC50 [4] [nM]
COc1cc2occc2cc1CCNc1cc(-c2ccc(C(=O)O)c(OC3CCC3)c2)ncn1 [Ex 100, 2-Cyclobutoxy-4-{6-[2-(6-methoxy-benzofuran-5-yl)-ethylamino]-pyrimidin-4-yl}-benzoic acid] | 67 | 35 | 29 | 176
COc1cc2ccoc2cc1CCNc1cc(-c2ccc(C(=O)O)c(OC3CCC3)c2)ncn1 [Ex 124, 2-Cyclobutoxy-4-{6-[2-(5-methoxy-benzofuran-6-yl)-ethylamino]-pyrimidin-4-yl}-benzoic acid] | 99 | 113 | 95 | 215
O=C(O)c1ccc(-c2cc(NCCc3ccc4sccc4c3)ncn2)cc1OC1CCC1 [Ex 125, 4-[6-(2-Benzo[b]thiophen-5-yl-ethylamino)-pyrimidin-4-yl]-2-cyclobutoxy-benzoic acid] | 99 | 116 | 129 | 226
COc1cc2ccsc2cc1CCNc1cc(-c2ccc(C(=O)O)c(SC)c2)ncn1 [Ex 152, 4-{6-[2-(5-Methoxy-benzo[b]thiophen-6-yl)-ethylamino]-pyrimidin-4-yl}-2-methylsulfanyl-benzoic acid] | 145 | 119 | 111 | 352
CCOc1cc(-c2cc(NCCc3ccc4sccc4c3)ncn2)ccc1C(=O)O [Ex 155, 4-[6-(2-Benzo[b]thiophen-5-yl-ethylamino)-pyrimidin-4-yl]-2-ethoxy-benzoic acid] | 151 | 232 | 161 | 301
CCOc1cc(-c2cc(NCCc3ccc4ccccc4c3C)ncn2)ccc1-c1nnn[nH]1 [Ex 156] | 154 | 107 | 221 | 36
CCOc1cc(-c2cc(NCCc3c(OC)cc4occc4c3C)ncn2)ccc1CC(=O)O [Ex 157, (2-Ethoxy-4-{6-[2-(6-methoxy-4-methyl-benzofuran-5-yl)-ethylamino]-pyrimidin-4-yl}-phenyl)-acetic acid] | 156 | 7 | 22 | 89
CCSc1cc(-c2cc(NCCc3cc4ccoc4cc3OC)ncn2)ccc1C(=O)O [Ex 158, 2-Ethylsulfanyl-4-{6-[2-(6-methoxy-benzofuran-5-yl)-ethylamino]-pyrimidin-4-yl}-benzoic acid] | 157 | 23 | 16 | 185
CCOc1cc(-c2cc(NCCc3cc4occc4cc3OC)ncn2)ccc1OCC(=O)O [Ex 159, (2-Ethoxy-4-{6-[2-(5-methoxy-benzofuran-6-yl)-ethylamino]-pyrimidin-4-yl}-phenoxy)-acetic acid] | 157 | 180 | 179 | 140
Cc1c(CCNc2cc(-c3ccc(C(=O)O)c(OC4CCC4)c3)ncn2)ccc2ccccc12 [Ex 168] | 168 | 151 | 214 | 128
CCCCOc1cc(-c2cc(NCCc3ccc4ccccc4c3C)ncn2)ccc1C(=O)O [Ex 169, 2-Butoxy-4-{6-[2-(1-methyl-naphthalen-2-yl)-ethylamino]-pyrimidin-4-yl}-benzoic acid] | 168 | 141 | 125 | 269
CCOc1cc(-c2cc(NCCc3ccc4ccccc4c3C)ncn2)ccc1C(=O)O [Ex 172, 2-Ethoxy-4-{6-[2-(1-methyl-naphthalen-2-yl)-ethylamino]-pyrimidin-4-yl}-benzoic acid] | 181 | 157 | 137 | 287

More lines, now with the values ahead:

IC50 [1] [nM] | IC50 [2] [nM] | IC50 [3] [nM] | IC50 [4] [nM] | Compound
47 | 274 | 70 | 255 | Cc1c(CCNc2cc(-c3ccc(C(=O)O)c(OC(F)F)c3)ncn2)ccc2ccccc12 [Ex 83, 2-Difluoromethoxy-4-{6-[2-(1-methyl-naphthalen-2-yl)-ethylamino]-pyrimidin-4-yl}-benzoic acid]
118 | 275 | 85 | 1260 | COc1cc2c(cc1CCNc1cc(-c3ccc4oc(C(=O)O)cc4c3)ncn1)OCCO2 [Ex 93, 5-{6-[2-(7-Methoxy-2,3-dihydro-benzo[1,4]dioxin-6-yl)-ethylamino]-pyrimidin-4-yl}-benzofuran-2-carboxylic acid]
70 | 9 | 6 | 141 | CCOc1cc(-c2cc(NCCc3c(OC)cc4occc4c3C)ncn2)ccc1OCC(=O)O [Ex 102, (2-Ethoxy-4-{6-[2-(6-methoxy-4-methyl-benzofuran-5-yl)-ethylamino]-pyrimidin-4-yl}-phenoxy)-acetic acid]
71 | 51 | 89 | 18 | C#Cc1cc2ccccc2cc1CCNc1cc(-c2ccc(OCC(=O)O)c(OCC)c2)ncn1 [Ex 103, (2-Ethoxy-4-{6-[2-(3-ethynyl-naphthalen-2-yl)-ethylamino]-pyrimidin-4-yl}-phenoxy)-acetic acid]
71 | 12 | 13 | 91 | CCOc1cc(-c2cc(NCCc3cc4c(cc3F)OCCN4C)ncn2)sc1C(=O)O [Ex 104, 3-Ethoxy-5-{6-[2-(7-fluoro-4-methyl-3,4-dihydro-2H-benzo[1,4]oxazin-6-yl)-ethylamino]-pyrimidin-4-yl}-thiophene-2-carboxylic acid]
73 | 40 | 76 | 53 | C#Cc1cc2ccccc2cc1CCNc1cc(-c2ccc(C(=O)O)c(OCC)c2)ncn1 [Ex 105, 2-Ethoxy-4-{6-[2-(3-ethynyl-naphthalen-2-yl)-ethylamino]-pyrimidin-4-yl}-benzoic acid]
81 | 56 | 61 | 179 | CCSc1cc(-c2cc(NCCc3cc4c(cc3OC)OCCO4)ncn2)ccc1C(=O)O [Ex 110, 2-Ethylsulfanyl-4-{6-[2-(7-methoxy-2,3-dihydro-benzo[1,4]dioxin-6-yl)-ethylamino]-pyrimidin-4-yl}-benzoic acid]
81 | 115 | 49 | 89 | CCOc1cc(-c2cc(NCCc3ccc4c(c3)OCO4)ncn2)sc1C(=O)O [Ex 111, 5-[6-(2-Benzo[1,3]dioxol-5-yl-ethylamino)-pyrimidin-4-yl]-3-ethoxy-thiophene-2-carboxylic acid]
82 | 40 | 69 | 127 | CCOc1cc(-c2cc(NCCc3cc4ccoc4cc3OC)ncn2)ccc1OCC(=O)O [Ex 112, (2-Ethoxy-4-{6-[2-(6-methoxy-benzofuran-5-yl)-ethylamino]-pyrimidin-4-yl}-phenoxy)-acetic acid]
86 | 76 | 23 | 135 | COc1cc2c(cc1CCNc1cc(-c3ccc(C(=O)O)c(SC)c3)ncn1)OCCO2 [Ex 116, 4-{6-[2-(7-Methoxy-2,3-dihydro-benzo[1,4]dioxin-6-yl)-ethylamino]-pyrimidin-4-yl}-2-methylsulfanyl-benzoic acid]
90 | 32 | 41 | 113 | CCOc1cc(-c2cc(NCCc3cc4c(cc3OC(F)F)OCO4)ncn2)sc1C(=O)O [Ex 119, 5-{6-[2-(6-Difluoromethoxy-benzo[1,3]dioxol-5-yl)-ethylamino]-pyrimidin-4-yl}-3-ethoxy-thiophene-2-carboxylic acid]
103 | 181 | 101 | 109 | Cc1c(CCNc2cc(-c3cc4c(C(=O)O)cccc4[nH]3)ncn2)ccc2ccccc12 [Ex 127, 2-{6-[2-(1-Methyl-naphthalen-2-yl)-ethylamino]-pyrimidin-4-yl}-1H-indole-4-carboxylic acid]
107 | 82 | 66 | 161 | CSc1cc(-c2cc(NCCc3ccc4sccc4c3)ncn2)ccc1C(=O)O [Ex 132, 4-[6-(2-Benzo[b]thiophen-5-yl-ethylamino)-pyrimidin-4-yl]-2-methylsulfanyl-benzoic acid]
120 | 14 | 4 | 124 | CCOc1cc2c(cc1CCNc1cc(-c3ccc(C(=O)O)c(SC)c3)ncn1)OCCO2 [Ex 137, 4-{6-[2-(7-Ethoxy-2,3-dihydro-benzo[1,4]dioxin-6-yl)-ethylamino]-pyrimidin-4-yl}-2-methylsulfanyl-benzoic acid]
127 | 121 | 177 | 180 | CCOc1cc(-c2cc(NCCc3cc4ccoc4cc3F)ncn2)ccc1OCC(=O)O [Ex 142, (2-Ethoxy-4-{6-[2-(6-fluoro-benzofuran-5-yl)-ethylamino]-pyrimidin-4-yl}-phenoxy)-acetic acid]
144 | 230 | 219 | 222 | CCCCOc1cc(-c2cc(NCCc3ccc4ccccc4c3C)ncn2)cc(F)c1C(=O)O [Ex 150]
145 | 32 | 35 | 618 | CCOc1cc(-c2cc(NCCc3cc4ccoc4cc3OC)ncn2)ccc1C(=O)O [Ex 151, 2-Ethoxy-4-{6-[2-(6-methoxy-benzofuran-5-yl)-ethylamino]-pyrimidin-4-yl}-benzoic acid]
